Reference: patent US20120122948A1, “3-ALKYL-5-FLUOROINDOLE DERIVATIVES AS MYELOPEROXIDASE INHIBITORS” (UNIVERSITE LIBRE DE BEUXELLES, priority 2009, published 2012)
Where a name gives a salt, the structure may show the parent alone. Read-outs that look alike come from different tables or passages of the source.

Experiments:
MPO [1] = molecular target: T1, MPO (Homo sapiens, UniProt P05164); assay: Inhibition of LDL oxidation by MPO, ELISA with Mab AG9; format: biochemical; conditions: for remaining activity at 0.05 µM / remaining activity at 0.1 µM / remaining activity at 1 µM / LDL oxidation (%): 5 min
T1 construct: made in house
T1 sequence (P05164 49-745): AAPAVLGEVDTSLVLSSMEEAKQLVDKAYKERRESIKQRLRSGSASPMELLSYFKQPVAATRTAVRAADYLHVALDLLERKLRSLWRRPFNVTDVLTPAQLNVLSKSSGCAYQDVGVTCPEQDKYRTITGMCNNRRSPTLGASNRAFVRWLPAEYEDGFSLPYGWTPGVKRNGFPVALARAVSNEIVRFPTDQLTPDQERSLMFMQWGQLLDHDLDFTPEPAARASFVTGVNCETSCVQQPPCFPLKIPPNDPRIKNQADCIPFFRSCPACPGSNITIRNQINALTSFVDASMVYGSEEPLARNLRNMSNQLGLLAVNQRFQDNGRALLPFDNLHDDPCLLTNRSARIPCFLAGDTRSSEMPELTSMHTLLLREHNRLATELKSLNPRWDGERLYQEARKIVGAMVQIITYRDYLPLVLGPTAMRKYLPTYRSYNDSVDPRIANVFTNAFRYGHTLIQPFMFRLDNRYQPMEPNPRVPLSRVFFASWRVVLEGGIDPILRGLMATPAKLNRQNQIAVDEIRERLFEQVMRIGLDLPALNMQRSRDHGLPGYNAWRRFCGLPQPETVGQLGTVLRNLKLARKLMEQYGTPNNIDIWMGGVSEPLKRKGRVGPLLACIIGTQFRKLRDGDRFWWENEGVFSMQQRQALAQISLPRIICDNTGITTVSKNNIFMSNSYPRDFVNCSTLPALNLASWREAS
Method: Recombinant MPO was prepared as previously described. Each batch solution is characterized by its protein concentration (mg/ml), its activity (U/ml), and its specific activity (U/mg). The chlorination activity was determined according to Hewson and Hager. Human plasma served for the isolation of LDL by ultracentrifugation according to Havel et al. Before oxidation, the LDL fraction (1.019<d<1.067 g/ml) was desalted by two consecutive passages through PD10 gel-filtration columns (Amersham Biosciences, The Netherlands) using PBS buffer. The different steps were carried out in the dark and the protein concentration was measured by the Lowry assay for both MPO and LDL.
The LDL oxidation was carried out at 37° C. in a final volume of 500 μl. The reaction mixture contained the following reagents at the final concentrations indicated between brackets: pH 7.2, PBS buffer, MPO (1 μg/ml), LDL (1000 μg/ml), 2 μl HCl 1N (4 mM), a compound of formula (Ia) of the present invention (50, 100 and 1000 nM), and H2O2 (100 μM). The reaction was stopped after 5 min by cooling the tubes in ice. The assay was performed as described by Moguilevsky et al. (Moguilevsky N., Zouaoui Boudjeltia Z., Babar S., Delrée P., Legssyer I., Carpentier Y., Vanhaeverbeek M., Ducobu J. Monoclonal antibodies against LDL progressively oxidized by myeloperoxidase react with ApoB-100 protein moiety and human atherosclerotic lesions. Biochem. Biophys. Res. Commun. 2004, 323, 1223-1228) in a NUNC maxisorp plate (VWR, Zaventem, Belgium): 200 ng/well of LDL was coated overnight at 4° C. in a sodium bicarbonate pH 9.8 buffer (100 μl). Afterwards, the plate was washed with TBS 80 buffer and then saturated during 1 h at 37° C. with the PBS buffer containing 1% BSA (150 μl/well). After washing the wells twice with the TBS 80 buffer, the monoclonal antibody Mab AG9 (200 ng/well) obtained according to a standard protocol and as previously described was added as a diluted solution in PBS buffer with 0.5% BSA and 0.1% of Polysorbate 20. After incubation for 1 h at 37° C., the plate was washed four times with the TBS 80 buffer and a 3000 times diluted solution of Ig G anti-mouse Alkaline Phosphatase (Promega, Leiden, The Netherlands) in the same buffer was added (100 μl/well). The wells were washed again four times and a revelation solution (150 μl/well) containing 5 mg of para-nitrophenyl phosphate in 5 ml of diethanolamine buffer was added for 30 min at room temperature. The reaction was stopped with 60 μl/well of NaOH 3 N solution. The measurement of the absorbance was performed at 405 nm with a background correction at 655 nm with a Bio-Rad photometer for a 96-well plate (Bio-Rad laboratories, CA, USA). Results were expressed as means of the percentage of LDL oxidation for six independent measurements.

MPO [2] = molecular target: T1, MPO; assay: Myeloperoxidase inhibition (MPO) assay, taurine chloramine production by the MPO/H2O2/Cl- system; format: biochemical; conditions: for 1/IC50: inhibition capability expressed as 1/IC50
Excerpt: The assay was based on the production of taurine chloramine produced by the MPO/H2O2/Cl^− system in the presence of a selected inhibitor at defined concentration. The procedure for detecting the inhibition of myeloperoxidase has been described in Van Antwerpen et al. (Development and validation of a screening procedure for the assessment of inhibition using a recombinant enzyme, Talanta, 2008, 75(2), 503-510) and is incorporated herewith by reference. Briefly, the reaction mixture contained the following reagents in a final volume of 200 μl: pH 7.4 phosphate buffer (PO4^3−10 mM/NaCl 300 mM), taurine (15 mM), a compound to be tested (up to 20 μM), and the fixed amount of the recombinant MPO (6.6 μl of MPO batch solution diluted 2.5 times, 40 nM). When necessary, the volume was adjusted with water. This mixture was incubated at 37° C. and the reaction initiated with 10.0 μl of H2O2 (100 μM). After 5 minutes, the reaction was stopped by the addition of 10 μl of catalase (8 U/μl). To determine the amount of taurine chloramines produced, 50 μl of 1.35 mM solution of thionitrobenzoic acid were added and the volume adjusted to 300 μl with water. Then, the absorbance of the solutions was measured at 412 nm with a microplate reader and the curve of the absorbance as a function of the inhibitor concentration was plotted. IC50 values against myeloperoxidase enzyme were then determined using standard procedures taking into account the absence of hydrogen peroxide as 100% of inhibition and the absence of inhibitors as 0% of inhibition.

[3] = pH 7.2, read-out: LDL oxidation (%)
[4] = recombinant MPO 40 nM, pH 7.4 phosphate buffer, 37° C., H2O2 100 μM, 5 minutes
[5] = pH 7.2, compound 50 nM, MPO 1 μg/ml, LDL 1000 μg/ml, pH 7.2, 37° C., mean of six measurements, read-out: LDL oxidation (%)
[6] = pH 7.2, compound 100 nM, MPO 1 μg/ml, LDL 1000 μg/ml, pH 7.2, 37° C., mean of six measurements, read-out: LDL oxidation (%)
[7] = pH 7.2, compound 1000 nM, MPO 1 μg/ml, LDL 1000 μg/ml, pH 7.2, 37° C., mean of six measurements, read-out: LDL oxidation (%)
[8] = value given in nM in the text on FIG. 2
[9] = compound 50 nM, MPO 1 μg/ml, LDL 1000 μg/ml, pH 7.2, 37° C., mean of six measurements
[10] = compound 100 nM, MPO 1 μg/ml, LDL 1000 μg/ml, pH 7.2, 37° C., mean of six measurements
[11] = compound 1000 nM, MPO 1 μg/ml, LDL 1000 μg/ml, pH 7.2, 37° C., mean of six measurements

Row | Compound | remaining activity at 0.05 µM (MPO [1]; [3]) | remaining activity at 0.1 µM (MPO [1]; [3]) | remaining activity at 1 µM (MPO [1]; [3]) | inhibition of LDL oxidation (in words) (MPO [1]; irrespective of its concentration in the medium) | 1/IC50 (MPO [2]) | IC50 (MPO [2]; [4]) | remaining activity at 0.05 µM (MPO [1]; [5]) | remaining activity at 0.1 µM (MPO [1]; [6]) | remaining activity at 1 µM (MPO [1]; [7]) | inhibition of LDL oxidation (in words) (MPO [1]; at low concentration) | IC50 (MPO [2]; [8]) | LDL oxidation (%) (MPO [1]; [9]) | LDL oxidation (%) (MPO [1]; [10]) | LDL oxidation (%) (MPO [1]; [11])
1 | NCCc1c[nH]c2ccc(F)cc12 [Compound A, 5-fluorotryptamine, reference compound] | 119% | 111% | 41.5% | poorly effective | 5 ± 0.6 µM⁻¹ | 200 nM | – | – | – | – | – | – | – | –
2 | NCCCc1c[nH]c2ccc(F)cc12 [Compound B, 3-(3-Aminopropyl)-5-fluoro-[1H]-indole] | – | – | – | – | 20 ± 4 µM⁻¹ | 50 ± 8 nM | 26% | 19% | 9% | excellent results | – | – | – | –
3 | NCCCCc1c[nH]c2ccc(F)cc12 [Compound C, 3-(4-Aminobutyl)-5-fluoro-[1H]-indole oxalate] | – | – | – | – | 72 ± 19 µM⁻¹ | 15 nM | < 18.5% | < 18.5% | 6.1% | powerful performance | 15 ± 4 nM | – | – | –
4 | CN(C)CCc1c[nH]c2ccc(F)cc12 [Compound D, N,N-Dimethyl-3-(2-aminoethyl)-5-fluoro-[1H]-indole] | 91.7% | 64.2% | 9.9% | – | 14 ± 7 µM⁻¹ | 90 ± 60 nM | – | – | – | – | – | – | – | –
5 | Fc1ccc2[nH]cc(CCN3CCCC3)c2c1 [Compound E, 5-Fluoro-3-[2-(1-pyrrolidinyl)ethyl]-[1H]-indole] | 49.2% | 47.9% | 12.1% | – | 32 ± 19 µM⁻¹ | 40 ± 30 nM | – | – | – | – | – | – | – | –
6 | CCN(CC)CCc1c[nH]c2ccc(F)cc12 [Compound F, N,N-Diethyl-3-(2-aminoethyl)-5-fluoro-[1H]-indole] | 80.1% | 60.2% | 8% | – | 7 ± 3 µM⁻¹ | 160 ± 80 nM | – | – | – | – | – | – | – | –
7 | CN(C)CCCc1c[nH]c2ccc(F)cc12 [Compound H, N,N-Dimethyl-3-(3-aminopropyl)-5-fluoro-[1H]indole tartrate] | – | – | – | – | 11 ± 8 µM⁻¹ | 130 ± 90 nM | 42.4% | 39.7% | 8.4% | – | – | – | – | –
8 | NCCCCCc1c[nH]c2ccc(F)cc12 [Compound K, 3-(5-Aminopentyl)-5-fluoro-[1H]-indole oxalate] | – | – | – | – | 122 ± 15 µM⁻¹ | 8 nM | 29.5% | 23.4% | 3.2% | powerful performance | 8 ± 1 nM | – | – | –
9 | NCCCCCCc1c[nH]c2ccc(F)cc12 [Compound L, 3-(6-Aminohexyl)-5-fluoro-[1H]-indole oxalate] | – | – | – | – | 3.8 ± 0.2 µM⁻¹ | 260 ± 10 nM | 91.8% | 56.1% | 18.2% | – | – | – | – | –
10 | N-Methyl-3-(3-aminopropyl)-5-fluoro-[1H]-indole tartrate [Compound G] | – | – | – | – | 6 ± 2 µM⁻¹ | 200 ± 200 nM | – | – | – | excellent results | – | 32.9% | 24.8% | 10.2%
11 | N-Propyl-3-(3-aminopropyl)-5-fluoro-[1H]-indole [Compound J] | – | – | – | – | 6 ± 1 µM⁻¹ | 170 ± 30 nM | – | – | – | – | – | 79.9% | 42.5% | 5.6%
